Results reported in patent US20080318789A1, “Seed germination acceleration” (priority 2007, published 2008).

Tested on: canola (cv. Westar) seed
Experiment: Petri plate germination study of treated canola seed at 6° C.
Type: in vivo
Conditions: petri plates at 6° C., n = 3 plates of 15 seeds; for Percent germinated Day 5: day 5 after treatment; for Percent germinated Day 6: day 6 after treatment; for Percent germinated Day 7: day 7 after treatment
Protocol: For all seed treatments, 1 ppm active ingredient refers to 1 microgram active ingredient per gram of seed. For these studies, GA3, GA4/7, 6BA or CPPU were each dispensed into a 15 ml centrifuge tube, and 2.5 ml of de-ionized water was then added to each tube. The solution was mixed on a vortex mixer and 0.015 ml of this solution was then placed in another 15 ml. centrifuge tube along with 0.6 grams of canola seeds (cv. Westar). Seeds were mixed by rotating 360° on a Labquake Rotisserie for 30 minutes. To simulate commercial seed treatments, the amount of solutions was just sufficient to wet the seeds. After treating, the seeds were placed in weigh boats for overnight drying. Petri plate studies: Each standard petri plate (100 mm×50 mm) contained 1 blue Anchor germination circle (3¼ inches in diameter) drenched with 8 ml of de-ionized water cooled to 6° C., Each treatment consisted of 3 petri plates of 15 seeds each. After plating, the petri plates were placed in a Nalgene plastic container pre-cooled to 6° C. The plastic container containing the petri plates was placed in a growth chamber at 6° C. with a 16-hour light cycle for the duration of the study. Seeds were visually observed daily for germination as determined by emergence of root from the seed coat. Canola seeds (cv. Westar) were treated with solutions containing GA4/7, GA3, 6BA, or CPPU. The solutions were sufficient only to wet the seeds. The amount of applied GA4/7 ([…]), GA3 (0.5, 5 or 50 ppm), 6BA (5 or 50 ppm), or CPPU (5 or 50 ppm) is expressed as ppm or micrograms of compound per gram of seed.

Compound | Percent germinated Day 5 (seed treatment 0.5 ppm) [%] | Percent germinated Day 6 (seed treatment 0.5 ppm) [%] | Percent germinated Day 7 (seed treatment 0.5 ppm) [%] | Percent germinated Day 5 (seed treatment 5 ppm) [%] | Percent germinated Day 6 (seed treatment 5 ppm) [%] | Percent germinated Day 7 (seed treatment 5 ppm) [%] | Percent germinated Day 5 (seed treatment 50 ppm) [%] | Percent germinated Day 6 (seed treatment 50 ppm) [%] | Percent germinated Day 7 (seed treatment 50 ppm) [%]
C=C1C[C@]23C[C@@]1(O)CC[C@H]2[C@@]12C=C[C@H](O)[C@@](C)(C(=O)O1)[C@H]2[C@@H]3C(=O)O [GA3, (1α,2β,4aα,4bβ,10β)-2,4-a,7-trihydroxy-1-methyl-8-methylenegibb-3-ene-1,10-dicarboxylic acid 1,4a-lactone] | 0 | 0.3 | 0.3 | 0 | 0.3 | 0.7 | 0.3 | 2.7 | 5.0
c1ccc(CNc2ncnc3nc[nH]c23)cc1 [6BA] | – | – | – | 0 | 0 | 0 | 0 | 0.3 | 0.3
O=C(Nc1ccccc1)Nc1ccnc(Cl)c1 [CPPU, 1-(2-chloro-4-pyridyl)-3-phenylurea] | – | – | – | 0 | 0 | 0.3 | 0 | 0 | 0
